Assay results published in patent US9540333B2, “Alkyl amide-substituted pyrimidine compounds useful in the modulation of IL-12, IL-23 and/or IFNα” (Bristol-Myers Squibb Company, priority 2012, dated 2017).

How the values were obtained:
[1] = target: T1, His-tagged protein corresponding to amino acids 575-869 of human Tyk2 (Homo sapiens, UniProt P29597); experiment: Probe displacement assay (scintillation proximity, radiolabeled probe); type: binding; conditions: 2.5 nM Tyk2 (575-869), 40 nM tritiated probe, 30 minutes at room temperature
T1 construct: His-tagged protein corresponding to amino acids 575-869 of human Tyk2; made in house
T1 sequence (P29597 575-869): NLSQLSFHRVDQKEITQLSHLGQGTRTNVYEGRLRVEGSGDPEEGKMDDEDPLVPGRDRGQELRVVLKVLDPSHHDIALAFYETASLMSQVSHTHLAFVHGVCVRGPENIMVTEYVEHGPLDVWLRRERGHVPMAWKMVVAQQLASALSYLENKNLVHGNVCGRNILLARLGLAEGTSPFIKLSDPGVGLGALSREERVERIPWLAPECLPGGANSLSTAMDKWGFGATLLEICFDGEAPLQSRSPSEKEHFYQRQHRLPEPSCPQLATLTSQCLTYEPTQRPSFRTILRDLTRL
Method: The probe displacement assay is conducted as follows: In a […], test compounds along with recombinantly expressed His-tagged protein corresponding to amino acids 575-869 of human Tyk2 (sequence shown below) at 2.5 nM, 40 nM ((R)—N-(1-(3-(8-methyl-5-(methylamino)-8H-imidazo[4,5-d]thiazolo[5,4-b]pyridin-2-yl)phenyl)ethyl)-2-([^3H]methylsulfonyl)benzamide) (preparation described below) and 80 μg/mL Copper His-Tag scintillation proximity assay beads (Perkin Elmer, Catalog #RPNQ0095) in 50 mM HEPES, pH 7.5, containing 100 μg/mL bovine serum albumin and 5% DMSO were incubated for 30 minutes at room temperature. The amount of radiolabeled probe (preparation described below) bound to Tyk2 was then quantified by scintillation counting, and the inhibition by the test compound calculated by comparison to wells either with no inhibitor (0% inhibition) or without Tyk2 (100% inhibition). The IC50 value is defined as the concentration of test compound required to inhibit radiolabeled probe binding by 50%.
Protein Sequence of recombinant Hig-tagged Tyk2 (575-869):
The preparation of radiolabeled probe, (R)—N-(1-(3-(8-methyl-5-(methylamino)-8H-imidazo[4,5-d]thiazolo[5,4-b]pyridin-2-yl)phenyl)ethyl)-2-([^3H]methylsulfonyl)benzamide, was performed as described below.

[2] = tested on: IL-23 stimulated Kit225 T cells with STAT-dependent luciferase reporter; experiment: Kit225 T cell assay, IL-23 stimulated STAT-dependent luciferase reporter; type: cell-based; conditions: 20 ng/mL human recombinant IL-23, 5-6 hours, read-out: IL-23 Kit225 Reporter, LE (IC50)
Method: (§1) Kit225 T cells with a stably-integrated STAT-dependent luciferase reporter were plated in RPMI (Gibco) containing 10% heat-inactivated FBS (Gibco) and 100 U/mL PenStrep (Gibco). The cells were then stimulated with either 20 ng/mL human recombinant IL-23 or 200 U/mL human recombinant IFNα (PBL InterferonSource) for 5-6 hours. Luciferase expression was measured using the STEADY-GLO® Luciferase Assay System (Promega) according to the manufacturer's instructions. Inhibition data were calculated by comparison to no inhibitor control wells for 0% inhibition and non-stimulated control wells for 100% inhibition. Dose response curves were generated to determine the concentration required to inhibit 50% of cellular response (IC50) as derived by non-linear regression analysis.

[3] = tested on: IFNα stimulated Kit225 T cells with STAT-dependent luciferase reporter; experiment: Kit225 T cell assay, IFNα stimulated STAT-dependent luciferase reporter; type: cell-based; conditions: 200 U/mL human recombinant IFNα, 5-6 hours, read-out: IFNα Kit225 Reporter, LE (IC50)
Method: as §1

| SMILES | EC50 [1] | IC50 [2] | IC50 [3] |
| --- | --- | --- | --- |
| CNC(=O)c1cnc(NCC2CC2)nc1Nc1ccccc1S(C)(=O)=O [Example 1] | 320 nM | 3400 nM | 1600 nM |
| CNC(=O)c1cnc(Nc2ccc(F)cc2)nc1Nc1ccccc1C(N)=O [Example 2] | 60 nM | 2650 nM | 2790 nM |
| CNC(=O)c1cnc(Nc2ccc(F)cc2)nc1Nc1ccccc1 [Example 3] | 840 nM | 3510 nM | 12500 nM |
| CNC(=O)c1cnc(Nc2ccccc2)nc1Nc1ccccc1 [Example 4] | 530 nM | 8510 nM | 9520 nM |
| CNC(=O)c1cnc(Nc2cccc(-c3ccccc3)c2)nc1Nc1ccccc1C(N)=O [Example 5] | 50 nM | 4660 nM | 3020 nM |
| CNC(=O)c1cnc(Nc2ccc(F)cc2)nc1Nc1cccc(C(N)=O)c1 [Example 6] | 1350 nM | 3540 nM | 12500 nM |
| CNC(=O)c1cnc(NC2CCC2)nc1Nc1ccccc1C(N)=O [Example 7] | 110 nM | 9680 nM | 12500 nM |
| CNC(=O)c1cnc(NC2CCCC2)nc1Nc1ccccc1C(N)=O [Example 8] | 120 nM | 8280 nM | 12500 nM |
| CNC(=O)c1cnc(Nc2ccc(-c3ccccc3)cc2)nc1Nc1ccccc1C(N)=O [Example 10] | 70 nM | 1320 nM | 1450 nM |
| CNC(=O)c1cnc(Nc2ccc(F)cc2)nc1Nc1ccccc1S(C)(=O)=O [Example 11] | 70 nM | 60 nM | 590 nM |
| CNC(=O)c1cnc(Nc2ccccc2)nc1Nc1ccccc1S(C)(=O)=O [Example 12] | 30 nM | 200 nM | 160 nM |
| CNC(=O)c1cnc(Nc2ccc(F)c(C)c2)nc1Nc1ccccc1S(C)(=O)=O [Example 13] | 20 nM | 200 nM | 310 nM |
| CNC(=O)c1cnc(Nc2ccc(F)c(F)c2)nc1Nc1ccccc1S(C)(=O)=O [Example 14] | 8.47 nM | 280 nM | 460 nM |
